The source of these data is publication PMC11726555, “Photoswitchable Diazocine Derivative for Adenosine A3 Receptor Activation in Psoriasis” (Journal of the American Chemical Society, 2024).

What all share (format): cell-based
For assay [1], the target named is T1, adenosine A3 receptor (A3R) (Homo sapiens, UniProt P0DMS8).
T1 construct: gene ADORA3
T1 sequence (P0DMS8 1-318): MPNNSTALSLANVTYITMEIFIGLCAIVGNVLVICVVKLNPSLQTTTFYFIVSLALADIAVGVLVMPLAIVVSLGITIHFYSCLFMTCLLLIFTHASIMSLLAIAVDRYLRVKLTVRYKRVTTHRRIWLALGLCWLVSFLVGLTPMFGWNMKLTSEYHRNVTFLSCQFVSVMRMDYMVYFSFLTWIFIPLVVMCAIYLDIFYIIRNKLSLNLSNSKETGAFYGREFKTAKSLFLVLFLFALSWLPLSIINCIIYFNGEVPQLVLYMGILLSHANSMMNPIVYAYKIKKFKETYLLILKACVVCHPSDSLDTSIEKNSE
Put plainly: cAMP accumulation assay in HEK-293 cells expressing A3R (reference agonist). (cAMP levels reflect the balance of adenylyl cyclase and phosphodiesterase activity.)

Assay [2] addresses T1, adenosine A3 receptor (A3R). Put plainly: inhibition of forskolin-stimulated cAMP accumulation in HEK-293 cells expressing A3R (partial agonist, Emax […]). The settings on record: read-out: IC50 (the source's name).
Assay [3] addresses T2, A1R (adenosine A1 receptor) (Homo sapiens, UniProt P30542).
T2 construct: gene ADORA1
T2 sequence (P30542 1-326): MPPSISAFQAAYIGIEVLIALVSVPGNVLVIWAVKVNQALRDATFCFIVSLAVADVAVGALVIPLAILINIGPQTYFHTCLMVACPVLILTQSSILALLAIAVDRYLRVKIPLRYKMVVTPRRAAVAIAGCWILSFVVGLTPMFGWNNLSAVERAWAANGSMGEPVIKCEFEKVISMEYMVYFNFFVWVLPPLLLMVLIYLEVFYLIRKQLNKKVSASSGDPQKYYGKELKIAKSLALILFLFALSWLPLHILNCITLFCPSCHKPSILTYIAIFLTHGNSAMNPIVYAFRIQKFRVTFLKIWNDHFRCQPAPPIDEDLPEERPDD
Put plainly: cAMP accumulation assay in HEK-293 cells expressing A1R (reference agonist).

Molecules are shown by their SMILES.

Regarding `CNC(=O)[C@@]12C[C@@H]1[C@@H](n1cnc3c(NCc4cccc(Cl)c4)nc(C#Cc4ccc(F)c(F)c4)nc31)[C@H](O)[C@@H]2O` [MRS5698, (1S,2R,3S,4R,5S)-4-(6-((3-chlorobenzyl)amino)-2-((3,4-difluorophenyl)-ethynyl)-9H-purin-9-yl)-2,3-dihydroxy-N-methylbicyclo[3.1.0]hexane-1-carboxamide], the “cAMP accumulation assay in HEK-293 cells expressing A3R (reference agonist)” value in assay [1] is “treatment with MRS5698 and CPA (N^6-cyclopentyladenosine, selective A1R agonist) induced the maximum A3R- and A1R-mediated inhibition of cAMP accumulation”. For `CNC(=O)[C@H]1O[C@@H](n2cnc3c(NCc4ccc5c(c4)/N=N/c4ccccc4CC5)ncnc32)[C@H](O)[C@@H]1O` [compound 4, E-MRS7787], the EC50 in assay [2] is 0.031 µM. On to `OC[C@H]1O[C@@H](n2cnc3c(NC4CCCC4)ncnc32)[C@H](O)[C@@H]1O` [CPA], for which the “cAMP accumulation assay in HEK-293 cells expressing A1R (reference agonist)” value in assay [3] was “CPA (N^6-cyclopentyladenosine, selective A1R agonist) induced the maximum A3R- and A1R-mediated inhibition of cAMP accumulation”.
